Literature values, collected in patent publication US20130143937A1, “CHLORTHALIDONE COMBINATIONS” (Boehringer Ingelheim International GmbH, priority 2003, published 2013).

Conditions: in vivo

| Structure (SMILES) | mean plasma half-life |
| --- | --- |
| NS(=O)(=O)c1cc2c(cc1Cl)NCNS2(=O)=O [hydrochlorothiazide] | about 24 hours |
| NS(=O)(=O)c1cc(C2(O)NC(=O)c3ccccc32)ccc1Cl (centres unmarked) [chlorthalidone, 2-chloro-5-(2,3-dihydro-1-hydroxy-3-oxo-1h-isoindol-1-yl)benzene-sulfonamide] | 40 to 60 h |
